Test [1] deals with Adenosine deaminase 2 (CECR1) (Homo sapiens) (UniProt Q9NZK5). Description: Tested for binding constant against adenosine deaminase (ADA2) in human plasma.
For test [2] the target is unchanged. Description: Tested for inhibition against human plasma adenosine deaminase (ADA2).

Molecules are shown by their SMILES.

Sequence of Adenosine deaminase 2 (CECR1) (Homo sapiens) (Q9NZK5 whole entry, looked up): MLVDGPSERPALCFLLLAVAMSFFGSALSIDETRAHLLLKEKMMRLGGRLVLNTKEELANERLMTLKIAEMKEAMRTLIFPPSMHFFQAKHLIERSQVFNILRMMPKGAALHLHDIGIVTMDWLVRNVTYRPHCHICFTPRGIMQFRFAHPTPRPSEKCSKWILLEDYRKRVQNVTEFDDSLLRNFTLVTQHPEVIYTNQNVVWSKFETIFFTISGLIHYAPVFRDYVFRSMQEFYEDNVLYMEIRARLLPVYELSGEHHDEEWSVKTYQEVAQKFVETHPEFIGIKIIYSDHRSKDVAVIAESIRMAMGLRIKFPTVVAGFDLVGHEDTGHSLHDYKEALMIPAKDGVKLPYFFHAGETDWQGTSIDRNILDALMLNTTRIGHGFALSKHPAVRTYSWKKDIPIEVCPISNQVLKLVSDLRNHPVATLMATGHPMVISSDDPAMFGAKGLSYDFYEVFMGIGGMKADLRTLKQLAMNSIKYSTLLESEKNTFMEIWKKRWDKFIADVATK

As usually defined, the Ki is the equilibrium dissociation constant of an inhibitor or competing ligand from its target. With `Nc1ncnc2c1ncn2[C@@H]1O[C@H](CO)[C@@H](O)[C@H]1O` [[U-14C]adenosine], the Ki in test [1] turned out to be 2180 µM.
Compound `Nc1nncc2c1nnn2C1O[C@H](CO)[C@@H](O)[C@H]1O` (some centres not stated) showed a Ki in test [2] of 1410 µM.

Source of the values: BindingDB's records for doi:10.1021/jm00077a017 (University of Rhode Island, 1994).
